Experimental data published in patent US20160279154A1, “MITOCONDRIALLY-TARGETED TIMOQUINONES AND TOLUQUINONES” (MITOTECH SA, priority 2014, published 2016).
“Also recorded” adds a separate entry of the source.

Tests used:
mitochondria [1] = conditions: mitochondria supplemented with certain concentrations of SkQT; FIG. 8
From the text: Several compounds according to the invention were synthesized as described above and tested for biological activity as described in Antonenko et al., (Biochem. (Mosc.) (2008) 73:1273-1287).

human fibroblasts = assay: Protection from peroxide-induced cell death; format: cell-based; conditions: for protection from H2O2-induced apoptosis: FIG. 22
Description: Its activity was compared to the one of the most efficient MTA-SkQR1. The experiment was performed according to Antonenko et al., (Biochem. (Mosc.) (2008) 73:1273-1287 and the results are shown in FIG. 11.
The experiment was performed according to Antonenko et al., (Biochem. (Mosc.) (2008) 73:1273-1287. (see FIG. 12).
These experiments were performed as described in Antonenko et al (2008).

[2] = tested on: Y. lipolytica mitochondria; assay: H2O2 formation by Y. lipolytica mitochondria (Amplex red); format: biochemical; conditions: for rate of H2O2 formation by Y. lipolytica mitochondria: certain concentrations, 0.1 mg mitochondrial protein, FIG. 13, 14
Description: The experiment was performed in the following conditions: incubation medium contained 0.6 M mannitol, 20 mM Tris-succinate,0.5 mM EGTA, 0.2 mM Tris-phosphate, pH 7.2, 2 uM Amplex red, horse radish peroxidase (5 U) and mitochondria corresponding to 0.1 mg protein. […] Measurements were made using absorption/emission 530/590 nm.

rat liver mitochondria = assay: H2O2 formation by rat liver mitochondria (prooxidant effect, Amplex Red); format: biochemical; conditions: up to 15 um concentrations in the medium; FIG. 15
Description: Incubation medium contained 0.18 M mannitol, 0.07 M sucrose, 0.2 mM Tris-phosphate, 0.5 mM EGTA, pH 7.2, 20 mM Tris-succinate, 2 uM Amplex Red, 5 U horseradish Peroxidase, 6 mM aminotriazole (an inhibitor of catalase) and mitochondria corresponding to 0.25 mg protein. Excitation wavelength was of 563 nm, Emission wavelength was of 585 nm.

[3] = tested on: electron transport chain (ETC) of mitochondria isolated from rat heart
[4] = tested on: multi-drug resistance (MDR) proteins in HeLa cells; assay: Accumulation of SkQ variants in HeLa cells / expulsion by MDR pumps (flow cytometry); format: cell-based, human; conditions: for order of decreasing MDR-affinity: correlation suggested by the example; for accumulation in HeLa cells after MDR inhibitor: 100 nM SkQs, Pluronic L61 30 ug/ml added 10 minutes before, FIG. 17
Description: In the following experiment we have evaluated MDR expulsion of a timoquinone based SkQRT. HeLa cells were treated with 100 nM SkQRT and the activity of multidrug resistance pumps was estimated by fluorescence measurement using a Beckman Coulter FC 500 flow cytometer. […] Cells were incubated with 100 nM SkQs. After 60 minute, the medium was changed to control medium without SkQs (indicated with vertical line). […] It must be noted that MDR pumps are usually activated in tumor cells (for example HeLa), but not in normal non-malignant cells (fibroblasts or 3T3 cells).

energized mitochondria = assay: Reduction of SkQB by energized mitochondria; format: biochemical; conditions: FIG. 19
isolated mitochondria = assay: Antioxidant activity in isolated mitochondria damaged by the Fenton reaction; conditions: FIG. 20
Description: Antioxidant activity was measured in isolated mitochodnria subjected to oxidative damage by the Fenton reaction (method described in Antonenko et al 2008).

mitochondria [5] = assay: Hydrogen peroxide production by mitochondria in the presence of antimycin A; format: biochemical; conditions: FIG. 21
From the text: In the next experiment we measured hydrogen peroxide production by mitochondria in the presence of antimycin A (as described in Skulachev et al 2010, Biochim Biophys Acta, 1797(6-7), 878-8).

[6] = tested on: primary cultured human fibroblasts; assay: Accumulation in primary cultured human fibroblasts (non-tumor cells); format: cell-based; conditions: FIG. 18

Compound | protection from H2O2-induced apoptosis (human fibroblasts) | rate of H2O2 formation by Y. lipolytica mitochondria [2] | prooxidant effect: stimulation of H2O2 formation by rat liver mitochondria at high concentrations (rat liver mitochondria) | order of decreasing MDR-affinity [4] | accumulation in HeLa cells after MDR inhibitor [4] | accumulation in human fibroblasts, SkQR1 compared with SkQRT1 [6] | also measured
10-(2-methyl-1,4-benzoquinonyl-5)decyltriphenylphosphonium bromide [SkQT] | good protection | dramatically decrease | did not stimulate H202 formation |  |  |  | protection of mitochondria from oxidative damage (malondialdehyde concentration) (mitochondria [1]): successfully protected mitochondria from oxidative damage; prevention of peroxide-induced cell death (human fibroblasts; FIG. 11): very efficient; protection from H2O2-induced cell death by different dosages (human fibroblasts; FIG. 12): protection of human fibroblasts; window between lowest and highest no effect doses ([2]; compared with SkQ1, biological examples 5 and 6): much wider; hydrogen peroxide formation by mitochondria at optimal concentration ([2]; optimal concentration, biological examples 5 and 6): almost completely prevented hydrogen peroxide formation; effect of myxothiasole on reduction of the quinone form ([3]; 1 uM myxothiasole added at 10 min point, FIG. 10): prevented further reduction; reduction by mitochondria ([3]; rat heart mitochondria 0.05 mg/ml, 5 mM succinate, 2 uM rotenone, 100 nM SkQT, FIG. 9): can be reduced by mitochondria
CC1=C(C)C(=O)C(CCCCCCCCCC[P+](c2ccccc2)(c2ccccc2)c2ccccc2)=CC1=O.[Br-] [SkQ1, reference compound] | good protection | considerably lower | prooxidant effect | SkQB>SkQT>SkQ1>SkQ3 |  |  | 
CC1=C(C)C(=O)C(CCCCCCCCCC[P+](c2ccccc2)(c2ccccc2)c2ccccc2)=C(C)C1=O [SkQ3] |  |  |  | SkQB>SkQT>SkQ1>SkQ3 |  |  | 
O=C1C=CC(=O)C(CCCCCCCCCC[P+](c2ccccc2)(c2ccccc2)c2ccccc2)=C1 [SkQB, 10-(1,4-benzoquinonyl-2)decyltriphenylphosphonium bromide] | weak protection |  |  | SkQB>SkQT>SkQ1>SkQ3 |  |  | reduction by energized mitochondria (energized mitochondria): can be reduced by energized mitochondria in an antimycin-sensitive way; antioxidant activity (isolated mitochondria): very weak antioxidant activity; also recorded: lower compared to SkQ1; hydrogen peroxide production (pro-oxidant activity) (mitochondria [5]): pronounced pro-oxidant activity; also recorded: to a greater extent than SkQ1
CC/N=c1/cc2oc3cc(NCC)c(C)cc3c(-c3ccccc3C(=O)OCCCCCCCCCCC3=CC(=O)C(C)=C(C)C3=O)c-2cc1C [SkQR1, reference compound] |  |  |  |  | increased accumulation | no significant difference | 
CCN=c1cc2oc3cc(NCC)c(C)cc3c(-c3ccccc3C(=O)OCCCCCCCCCCC3=CC(=O)C(C)=CC3=O)c-2cc1C [SkQRT1, 10-(2-methyl-1,4-benzoquinonyl-5)-decyl ester of rhodamine 19] |  |  |  |  | increased accumulation | no significant difference | 
